From patent US20260042764A1, “COMPOSITIONS AND METHODS FOR INHIBITION OF KRAS” (TheRas, Inc., priority 2022, published 2026)

Experiments:
[1] = target: T1, Avi-KRAS G12R (1-169) GppNHp/RAF1 RBD-3xFLAG (52-151) (Homo sapiens, UniProt P01116, G12R); assay: Raf1-KRAS G12R-GppNHP disruption HTRF assay (Biological Example 1); type: binding; conditions: KRAS G12R-GppNHp/RAF1 RBD HTRF
T1 construct: Avi-KRAS G12R (1-169)
How it was run: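 HTRF PPI disruption; buffer 50 mM Tris pH 7.5, 100 mM NaCl, 5 mM MgCl2, 0.1% BSA, 0.01% Tween, 10% DMSO. Protein mix 1 h RT shaking, reagent mix 1 h RT shaking. Data as % activity vs DMSO (100%).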

[2] = target: T2, Avi-KRAS G12C (2-169) GTP/RAF1 RBD-3xFLAG (51-131) (Homo sapiens, UniProt P01116, G12C); assay: Raf1-KRAS G12C-GTP disruption HTRF assay (Biological Example 3); type: binding; conditions: KRAS G12C, GTP-loaded
T2 construct: Avi-KRAS G12C (2-169)
T2 sequence (P01116 2-169 isoform P01116-2 G12C): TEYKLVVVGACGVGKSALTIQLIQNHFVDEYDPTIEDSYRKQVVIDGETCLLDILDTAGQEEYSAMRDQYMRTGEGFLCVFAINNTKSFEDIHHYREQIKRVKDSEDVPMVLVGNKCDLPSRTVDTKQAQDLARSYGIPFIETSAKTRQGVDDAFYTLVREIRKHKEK
How it was run: (§1)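 An HTRF assay measured disruption of 50 nM Avi-KRAS (2-169)-GTP (WT, G12C, G12D or G12V) bound to RAF1 RBD-3xFLAG (51-131). Buffer was Tris pH 7.5 with 5 mM MgCl2 and 10% DMSO. Compounds (30–0.005 μM, 3-fold, 10 points) were incubated 1 h at room temperature, and activity is given as % of DMSO.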

[3] = target: T3, Avi-KRAS G12D (2-169) GTP/RAF1 RBD-3xFLAG (51-131) (Homo sapiens, UniProt P01116, G12D); assay: Raf1-KRAS G12D-GTP disruption HTRF assay (Biological Example 3); type: binding; conditions: KRAS G12D, GTP-loaded
T3 construct: Avi-KRAS G12D (2-169)
T3 sequence (P01116 2-169 isoform P01116-2 G12D): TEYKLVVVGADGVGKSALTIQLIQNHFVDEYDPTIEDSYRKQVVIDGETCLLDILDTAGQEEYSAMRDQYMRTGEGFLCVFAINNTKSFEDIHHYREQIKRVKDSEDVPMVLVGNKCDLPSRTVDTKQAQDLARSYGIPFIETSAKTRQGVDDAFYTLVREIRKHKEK
How it was run: as §1

GP2d cells (KRAS G12D) = assay: Cell-based pERK HTRF assay in GP2d cell (Biological Example 2); conditions: GP2d (KRAS G12D) cells
How it was run: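 60 min compound, 0.25% DMSO, 9-pt half-log curve from 1 μM or 100 nM; DMEM/10% FBS.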

T1 sequence (P01116 1-169 isoform P01116-2 G12R): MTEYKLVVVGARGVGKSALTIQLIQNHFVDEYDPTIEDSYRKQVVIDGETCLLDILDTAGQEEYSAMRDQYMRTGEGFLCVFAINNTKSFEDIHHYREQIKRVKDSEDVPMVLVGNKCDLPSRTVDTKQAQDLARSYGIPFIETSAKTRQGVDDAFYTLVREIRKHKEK

Compound	IC50 [1]	IC50 [2]	IC50 [3]	IC50 (GP2d cells (KRAS G12D); GP2d)	IC50 (GP2d cells (KRAS G12D); GP2d, pERK HTRF)	IC50 (GP2d cells (KRAS G12D))	IC50 (GP2d cells (KRAS G12D); pERK HTRF)
CCN1C[C@@H](N(CC)c2nc(OC[C@@]34CCCN3C[C@H](F)C4)nc3c(F)c(-c4ccc(F)c5sc(N)c(C#N)c45)c(C(F)(F)F)cc23)CC1=O [Compound 529, 2-amino-4-(4-(ethyl((S)-1-ethyl-5-oxopyrrolidin-3-yl)amino)-8-fluoro-2-(((2R,7aS)-2-fluorotetrahydro-1H-pyrrolizin-7a(5H)-yl)methoxy)-6-(trifluoromethyl)quinazolin-7-yl)-7-fluorobenzo[b]thiophene-3-carbonitrile]	< 100 nM	≤ 100 nM	≤ 100 nM	< 100 nM	< 100 nM	–	–
CCN(c1nc(OC[C@@]23CCCN2C[C@H](F)C3)nc2c(F)c(-c3ccc(F)c4sc(N)c(C#N)c34)c(C(F)(F)F)cc12)[C@H]1C[C@H](C)N(C(=O)C2COC2)C1 (atropisomer, axis not shown) [Compound 539]	< 100 nM	100 to 1000 nM	100 to 1000 nM	< 100 nM	< 100 nM	–	–
CCN(c1nc(OC[C@@]23CCCN2C[C@H](F)C3)nc2c(F)c(-c3ccc(F)c4sc(N)c(C#N)c34)c(C(F)(F)F)cc12)[C@H]1CCN(C(=O)OC)C1 (atropisomer, axis not shown) [Compound 541, methyl(3S)-3-[[7-(2-amino-3-cyano-7-fluoro-benzothiophen-4-yl)-8-fluoro-2-[[(2R,8S)-2-fluoro-1,2,3,5,6,7-hexahydropyrrolizin-8-yl]methoxy]-6-(trifluoromethyl)quinazolin-4-yl]-ethyl-amino]pyrrolidine-1-carboxylate]	< 100 nM	≤ 100 nM	≤ 100 nM	–	–	< 100 nM	< 100 nM
Cc1c(C(=O)N(C)C)nn2c1CN(c1nc(OC[C@@]34CCCN3C[C@H](F)C4)nc3c(F)c(-c4ccc(F)c5sc(N)c(C#N)c45)c(C(F)(F)F)cc13)CC2 [Compound 501]	< 100 nM	100 to 1000 nM	100 to 1000 nM	< 100 nM	< 100 nM	–	–
CCC(=O)N1C[C@H](N(CC)c2nc(OC[C@@]34CCCN3C[C@H](F)C4)nc3c(F)c(-c4ccc(F)c5sc(N)c(C#N)c45)c(C(F)(F)F)cc23)C[C@@H]1C (atropisomer, axis not shown) [Compound 533]	100 to 1000 nM	100 to 1000 nM	100 to 1000 nM	< 100 nM	< 100 nM	–	–
CCN(c1nc(OC[C@@]23CCCN2C[C@H](F)C3)nc2c(F)c(-c3ccc(F)c4sc(N)c(C#N)c34)c(C(F)(F)F)cc12)[C@@H]1CCN(C(=O)C2CC2)[C@@H]1C (atropisomer, axis not shown) [Compound 524]	< 100 nM	100 to 1000 nM	≤ 100 nM	< 100 nM	–	–	< 100 nM
CCN(c1nc(OC[C@@]23CCCN2C[C@H](F)C3)nc2c(F)c(-c3ccc(F)c4sc(N)c(C#N)c34)c(C(F)(F)F)cc12)[C@@H]1C[C@@H](C)N(C(C)=O)C1 (atropisomer, axis not shown) [Compound 527]	100 to 1000 nM	100 to 1000 nM	100 to 1000 nM	< 100 nM	< 100 nM	–	–
CCN(c1nc(OC[C@@]23CCCN2C[C@H](F)C3)nc2c(F)c(-c3ccc(F)c4sc(N)c(C#N)c34)c(C(F)(F)F)cc12)[C@H]1C[C@@H]2COC(=O)N2C1 (atropisomer, axis not shown) [Compound 519]	< 100 nM	100 to 1000 nM	≤ 100 nM	< 100 nM	< 100 nM	–	–
CCN(c1nc(OC[C@@]23CCCN2C[C@H](F)C3)nc2c(F)c(-c3ccc(F)c4sc(N)c(C#N)c34)c(C(F)(F)F)cc12)[C@@H]1C[C@H](C)N(C(C)=O)C1 (atropisomer, axis not shown) [Compound 534]	100 to 1000 nM	100 to 1000 nM	100 to 1000 nM	< 100 nM	< 100 nM	–	–
CCN(c1nc(OC[C@@]23CCCN2C[C@H](F)C3)nc2c(F)c(-c3ccc(F)c4sc(N)c(C#N)c34)c(C(F)(F)F)cc12)[C@H]1CCN(C(=O)c2ccon2)C1 (atropisomer, axis not shown) [Compound 554]	< 100 nM	100 to 1000 nM	≤ 100 nM	< 100 nM	< 100 nM	–	–
